These results are taken from US20060010514A1, “Polynucleotides encoding mature AHASL proteins for creating imidazolinone-tolerant plants” (BASF Plant Science GmbH, priority 2004, published 2006).

In test [1] the test system is AHAS of double mutant between 1A and 1D. To be noted: herbicide not restated, follows the 100 μM imazethapyr sentence; cited from earlier work.
Test [2] relates to AHAS of S653(At)N mutant in AHASL1B. Description: AHAS assay on extracts of S653(At)N mutants. In kind it is biochemical, Triticum aestivum. The source says:
(§1) The deletions, insertions, and substitutions of the protein sequences encompassed herein are not expected to produce radical changes in the characteristics of the protein. However, when it is difficult to predict the exact effect of the substitution, deletion, or insertion in advance of doing so, one skilled in the art will appreciate that the effect will be evaluated by routine screening assays. That is, AHASL function can be evaluated by AHAS enzyme activity assays in the presence and absence of an imidazolinone herbicide. See, for example, Singh et al. ((1988) Anal. Biochem. 171:173-179), herein incorporated by reference.
(§2) To obtain an understanding of the effect of each mutation on the level of enzyme sensitivity to the herbicides, AHAS assays were performed on S653(At)N mutants in all three genes using individuals from several backgrounds (representative data in FIG. 6A). […] Also, a double mutant between 1A and 1D retained 63% of AHAS activity (Pozniak et al. submitted). […] In durum wheat (T. turgidum) each homeolog appears to contribute equally to the AHAS pool (FIG. 6B).

For test [3], the system named is AHAS of S653(At)N mutant in AHASL1D. Description: AHAS assay on extracts of S653(At)N mutants. It counts as biochemical, Triticum aestivum.
Text: as §1, §2

Test [4] relates to AHAS of S653(At)N mutant in AHASL1A. The test is described as follows: AHAS assay on extracts of S653(At)N mutants. In kind it is biochemical, Triticum aestivum. The conditions noted are these: 100 μM imazapyr, several backgrounds.
Text: as §1, §2

Test [5] concerns wheat lines with S653(At)N mutation in AHASL1A. Description: herbicide spray assay, greenhouse-grown mutagenized wheat lines. The conditions noted are these: 0-9 rating scale (0=no injury; 9=highest injury); after spraying with imazamox; mutation in 1A. It counts as in vivo, Triticum aestivum. As to the method: (§3) The most common mutation observed in wheat results in a Ser to Asn substitution at the position equivalent to Ser653 in Arabidopsis (termed S653(At)N). Typically, 24 individuals from each mutagenized line were scored on a 0-9 rating scale (0=no injury; 9=highest injury) after spraying with a rate of imazamox sufficient for detecting differences in the greenhouse-grown plants (FIG. 4). For each line, the specific gene mutated was determined. A clear correlation was found between the ratings from herbicide spray assays and the specific homoeolog that was mutated at this position.

Test [6] relates to wheat lines with S653(At)N mutation in AHASL1D. The description is as above. The conditions noted are these: 0-9 rating scale (0=no injury; 9=highest injury), after spraying with imazamox. In kind it is in vivo, Triticum aestivum. As to the method: as §3
The subject of test [7] is wheat lines with S653(At)N mutation in AHASL1B. The test is described as above. It counts as in vivo, Triticum aestivum. The conditions noted are these: 0-9 rating scale (0=no injury; 9=highest injury); after spraying with imazamox; mutation in 1B. Here is the method: as §3

With `CCc1cnc(C2=NC(C)(C(C)C)C(=O)N2)c(C(=O)O)c1` (stereo not drawn) [imazethapyr], the AHAS activity retained in test [1] is given as 63%. Further, the “AHAS activity in the presence of herbicide” value was 30% in test [2] (100 μM imazethapyr, AHAS1B mutant extract, CDC Teal background) and 40% in test [3] (100 μM imazethapyr, AHAS1D mutant extract, CDC Teal background).

On to `CC(C)C1(C)N=C(c2ncccc2C(=O)O)NC1=O` (stereo not drawn) [imazapyr], for which the “AHAS activity in the presence of herbicide” value came to 33% in test [4] and 25% in test [2] (100 μM imazapyr, AHASL1B S653(At)N mutant, several backgrounds). Further, the “AHAS activity in the presence of herbicide (level of insensitivity)” value in test [3] (100 μM imazapyr, AHASL1D S653(At)N mutant, several backgrounds) is reported as 38%.

As to `COCc1cnc(C2=NC(C)(C(C)C)C(=O)N2)c(C(=O)O)c1` (stereo not drawn) [imazamox], the median injury in test [5] amounted to 6.4; in test [6], 4.0; in test [7] it was 5.4.
